Test results published in the supplement of paper PMC10307832.

Columns and labels:
Assay in all cases: relative viability (nuclei count vs DMSO), 5 days (fraction); higher = more cells survive
[1] = compound: CN(C)CC1=CC(=CC=C1)N=C(C2=CC=CC=C2)C3=C(NC4=C3C=CC(=C4)C(=O)N(C)C)O + C[C@]1(O)C[C@@H](c2nc(-c3ccc4ccc(-c5ccccc5)nc4c3)c3c(N)nccn32)C1 [Linsitinib] (partner 1 µM)
Summary of the method: (§1)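 Cells from lung cancer lines were seeded into 1536-well plates and, one day later, dosed by pin tool. Treatments were either a single drug or a fixed dose of an anchor drug with five library-drug doses (not always all listed) in √10 steps. After 5 days, nuclei were stained in a one-step fixation (final 0.05% Triton X-100, 1% formaldehyde, 1 ug/ml Hoechst) and counted on 4× images, and relative viability is the treated-to-vehicle nuclei ratio, as the median of duplicate plates.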

[2] = compound: CN(C)CC1=CC(=CC=C1)N=C(C2=CC=CC=C2)C3=C(NC4=C3C=CC(=C4)C(=O)N(C)C)O + Nc1nc2[nH]cc(CCc3ccc(C(=O)N[C@@H](CCC(=O)O)C(=O)O)cc3)c2c(=O)[nH]1 [Pemetrexed] (partner 0.2 µM)
Summary of the method: as §1

[3] = compound: CN(C)CC1=CC(=CC=C1)N=C(C2=CC=CC=C2)C3=C(NC4=C3C=CC(=C4)C(=O)N(C)C)O + Cc1nc(Nc2ncc(C(=O)Nc3c(C)cccc3Cl)s2)cc(N2CCN(CCO)CC2)n1 [Dasatinib] (partner 0.075 µM)
Summary of the method: as §1

[4] = compound: CN(C)CC1=CC(=CC=C1)N=C(C2=CC=CC=C2)C3=C(NC4=C3C=CC(=C4)C(=O)N(C)C)O + CS(=O)(=O)N1CCN(Cc2cc3nc(-c4cccc5[nH]ncc45)nc(N4CCOCC4)c3s2)CC1 [Pictilisib] (partner 1 µM)
Summary of the method: as §1

[5] = compound: CN(C)CC1=CC(=CC=C1)N=C(C2=CC=CC=C2)C3=C(NC4=C3C=CC(=C4)C(=O)N(C)C)O + COc1cc2c(Oc3ccc(NC(=O)C4(C(=O)Nc5ccc(F)cc5)CC4)cc3F)ccnc2cc1OCCCN1CCOCC1 [Foretinib] (partner 0.25 µM)
Summary of the method: as §1

[6] = compound: CN(C)CC1=CC(=CC=C1)N=C(C2=CC=CC=C2)C3=C(NC4=C3C=CC(=C4)C(=O)N(C)C)O + CC(C)C[C@H](NC(=O)[C@H](Cc1ccccc1)NC(=O)c1cnccn1)B(O)O [Bortezomib] (partner 0.002 µM)
Summary of the method: as §1

[7] = compound: CN(C)CC1=CC(=CC=C1)N=C(C2=CC=CC=C2)C3=C(NC4=C3C=CC(=C4)C(=O)N(C)C)O + N=C(N)NC(=N)NCCc1ccccc1 [Phenformin] (partner 250 µM)
Summary of the method: as §1

[8] = compound: CN(C)CC1=CC(=CC=C1)N=C(C2=CC=CC=C2)C3=C(NC4=C3C=CC(=C4)C(=O)N(C)C)O + CS(=O)(=O)CCNCc1ccc(-c2ccc3ncnc(Nc4ccc(OCc5cccc(F)c5)c(Cl)c4)c3c2)o1 [Lapatinib] (partner 2 µM)
Summary of the method: as §1

[9] = compound: CN(C)CC1=CC(=CC=C1)N=C(C2=CC=CC=C2)C3=C(NC4=C3C=CC(=C4)C(=O)N(C)C)O + Cc1nc(NC(=O)N2CCC[C@H]2C(N)=O)sc1-c1ccnc(C(C)(C)C(F)(F)F)c1 [Alpelisib] (partner 2 µM)
Summary of the method: as §1

[10] = compound: CN(C)CC1=CC(=CC=C1)N=C(C2=CC=CC=C2)C3=C(NC4=C3C=CC(=C4)C(=O)N(C)C)O + C[C@@H](Oc1cc(-c2cnn(C3CCNCC3)c2)cnc1N)c1c(Cl)ccc(F)c1Cl [Crizotinib] (partner 1 µM)
Summary of the method: as §1

[11] = compound: CN(C)CC1=CC(=CC=C1)N=C(C2=CC=CC=C2)C3=C(NC4=C3C=CC(=C4)C(=O)N(C)C)O + COc1cccc2cc(-c3nc([C@H]4CC[C@H](C(=O)O)CC4)n4ncnc(N)c34)[nH]c12 [OSI-027] (partner 0.5 µM)
Summary of the method: as §1

[12] = compound: CN(C)CC1=CC(=CC=C1)N=C(C2=CC=CC=C2)C3=C(NC4=C3C=CC(=C4)C(=O)N(C)C)O + CCNC(=O)c1noc(-c2cc(C(C)C)c(O)cc2O)c1-c1ccc(CN2CCOCC2)cc1 [Luminespib] (partner 0.01 µM)
Summary of the method: as §1

[13] = compound: CN(C)CC1=CC(=CC=C1)N=C(C2=CC=CC=C2)C3=C(NC4=C3C=CC(=C4)C(=O)N(C)C)O
Summary of the method: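 For viability, nuclei in each treated well were divided by nuclei in vehicle wells and the median across plates was taken. Lung cancer cell lines in 1536-well plates were pinned with five library-drug doses (not always all listed) spaced by √10, cultured 5 days without medium change, and imaged at 4× after Hoechst staining, with plates passing only at control CV below 25% and at least one doubling.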

[14] = compound: CN(C)CC1=CC(=CC=C1)N=C(C2=CC=CC=C2)C3=C(NC4=C3C=CC(=C4)C(=O)N(C)C)O + Cc1cc(Nc2cc(N3CCN(C)CC3)nc(Sc3ccc(NC(=O)C4CC4)cc3)n2)n[nH]1 [Tozasertib] (partner 0.1 µM)
Summary of the method: as §1

With NCI-H1563 the relative viability ([1]; first compound 0.08 µM) was 1.19, the relative viability ([1]; first compound 0.253 µM) was 1.28 and the relative viability ([1]; first compound 0.8 µM) was 1.15. For the same cell line, the relative viability ([1]; first compound 2.53 µM) was 1.08, the relative viability ([1]; first compound 8 µM) was 1.14 and the relative viability ([2]; first compound 0.08 µM) was 0.829. The relative viability ([2]; first compound 0.253 µM) was 0.665, the relative viability ([2]; first compound 0.8 µM) was 0.782 and the relative viability ([2]; first compound 2.53 µM) was 0.741. The relative viability ([2]; first compound 8 µM) was 0.698, the relative viability ([3]; first compound 0.08 µM) was 0.437 and the relative viability ([3]; first compound 0.253 µM) was 0.489. For the same cell line, the relative viability ([3]; first compound 0.8 µM) was 0.579, the relative viability ([3]; first compound 2.53 µM) was 0.389 and the relative viability ([3]; first compound 8 µM) was 0.411. It also gave a relative viability ([4]; first compound 0.08 µM) of 0.72, a relative viability ([4]; first compound 0.253 µM) of 0.637 and a relative viability ([4]; first compound 0.8 µM) of 0.613. The relative viability ([4]; first compound 2.53 µM) was 0.638, the relative viability ([4]; first compound 8 µM) was 0.617 and the relative viability ([5]; first compound 0.08 µM) was 0.941. It also gave a relative viability ([5]; first compound 0.253 µM) of 0.967, a relative viability ([5]; first compound 0.8 µM) of 0.917 and a relative viability ([5]; first compound 2.53 µM) of 0.857. The relative viability ([5]; first compound 8 µM) was 0.948, the relative viability ([6]; first compound 0.08 µM) was 0.868 and the relative viability ([6]; first compound 0.253 µM) was 0.921. The relative viability ([6]; first compound 0.8 µM) was 0.729, the relative viability ([6]; first compound 2.53 µM) was 0.755 and the relative viability ([6]; first compound 8 µM) was 0.737. The relative viability ([7]; first compound 0.08 µM) was 0.641, the relative viability ([7]; first compound 0.253 µM) was 0.7 and the relative viability ([7]; first compound 0.8 µM) was 0.654. For the same cell line, the relative viability ([7]; first compound 2.53 µM) was 0.648, the relative viability ([7]; first compound 8 µM) was 0.658 and the relative viability ([8]; first compound 0.08 µM) was 1.04. It also gave a relative viability ([8]; first compound 0.253 µM) of 0.894, a relative viability ([8]; first compound 0.8 µM) of 0.815 and a relative viability ([8]; first compound 2.53 µM) of 0.683. For the same cell line, the relative viability ([8]; first compound 8 µM) was 0.817, the relative viability ([9]; first compound 0.08 µM) was 1.03 and the relative viability ([9]; first compound 0.253 µM) was 1.03. For the same cell line, the relative viability ([9]; first compound 0.8 µM) was 0.956, the relative viability ([9]; first compound 2.53 µM) was 0.875 and the relative viability ([9]; first compound 8 µM) was 0.847. For the same cell line, the relative viability ([10]; first compound 0.08 µM) was 0.872, the relative viability ([10]; first compound 0.253 µM) was 0.871 and the relative viability ([10]; first compound 0.8 µM) was 0.833. For the same cell line, the relative viability ([10]; first compound 2.53 µM) was 0.846, the relative viability ([10]; first compound 8 µM) was 0.771 and the relative viability ([11]; first compound 0.08 µM) was 0.723. For the same cell line, the relative viability ([11]; first compound 0.253 µM) was 0.811, the relative viability ([11]; first compound 0.8 µM) was 0.775 and the relative viability ([11]; first compound 2.53 µM) was 0.766. The relative viability ([11]; first compound 8 µM) was 0.708, the relative viability ([12]; first compound 0.08 µM) was 0.49 and the relative viability ([12]; first compound 0.253 µM) was 0.467. It also gave a relative viability ([12]; first compound 0.8 µM) of 0.538, a relative viability ([12]; first compound 2.53 µM) of 0.576 and a relative viability ([12]; first compound 8 µM) of 0.495. For the same cell line, the relative viability ([13]; 0.08 µM) was 1.02, the relative viability ([13]; 0.253 µM) was 1 and the relative viability ([13]; 0.8 µM) was 0.905. The relative viability ([13]; 2.53 µM) was 0.861 and the relative viability ([13]; 8 µM) was 0.783.

NCI-H1623 showed a relative viability ([14]; first compound 0.08 µM) of 0.428, a relative viability ([14]; first compound 0.253 µM) of 0.519 and a relative viability ([14]; first compound 2.53 µM) of 0.412. It also gave a relative viability ([14]; first compound 8 µM) of 0.464, a relative viability ([3]; first compound 0.08 µM) of 0.552 and a relative viability ([3]; first compound 0.253 µM) of 0.632. The relative viability ([3]; first compound 2.53 µM) was 0.593, the relative viability ([3]; first compound 8 µM) was 0.499 and the relative viability ([5]; first compound 0.08 µM) was 0.825. The relative viability ([5]; first compound 0.253 µM) was 1.17, the relative viability ([5]; first compound 0.8 µM) was 0.642 and the relative viability ([5]; first compound 2.53 µM) was 0.894. It also gave a relative viability ([5]; first compound 8 µM) of 0.854, a relative viability ([7]; first compound 0.08 µM) of 0.544 and a relative viability ([7]; first compound 0.253 µM) of 0.69. For the same cell line, the relative viability ([7]; first compound 2.53 µM) was 0.551, the relative viability ([7]; first compound 8 µM) was 0.514 and the relative viability ([11]; first compound 0.08 µM) was 0.428. The relative viability ([11]; first compound 0.253 µM) was 0.449, the relative viability ([11]; first compound 0.8 µM) was 0.378 and the relative viability ([11]; first compound 2.53 µM) was 0.452. The relative viability ([11]; first compound 8 µM) was 0.514, the relative viability ([12]; first compound 0.08 µM) was 0.416 and the relative viability ([12]; first compound 0.253 µM) was 0.652. The relative viability ([12]; first compound 2.53 µM) was 0.445, the relative viability ([12]; first compound 8 µM) was 0.504 and the relative viability ([13]; 0.08 µM) was 1.09. It also gave a relative viability ([13]; 0.253 µM) of 0.97, a relative viability ([13]; 0.8 µM) of 0.729 and a relative viability ([13]; 2.53 µM) of 1.04. The relative viability ([13]; 8 µM) was 1.09.
